Measured values from BindingDB's records for PubMed 22084396 (Genentech, Inc and Exelixis).
pIC50: −log10 of the molar value.

Assays:
[1] = biological target: Serine/threonine-protein kinase 4, STK4/MST1 (Homo sapiens) (UniProt Q13043); assay: Inhibition of MST1 (unknown origin)
[2] = biological target: 3-phosphoinositide-dependent protein kinase 1, PDPK1 (Homo sapiens) (UniProt O15530); assay: Inhibition of PDK1 (unknown origin)
3-phosphoinositide-dependent protein kinase 1, PDPK1 (Homo sapiens), sequence (O15530 whole entry, looked up): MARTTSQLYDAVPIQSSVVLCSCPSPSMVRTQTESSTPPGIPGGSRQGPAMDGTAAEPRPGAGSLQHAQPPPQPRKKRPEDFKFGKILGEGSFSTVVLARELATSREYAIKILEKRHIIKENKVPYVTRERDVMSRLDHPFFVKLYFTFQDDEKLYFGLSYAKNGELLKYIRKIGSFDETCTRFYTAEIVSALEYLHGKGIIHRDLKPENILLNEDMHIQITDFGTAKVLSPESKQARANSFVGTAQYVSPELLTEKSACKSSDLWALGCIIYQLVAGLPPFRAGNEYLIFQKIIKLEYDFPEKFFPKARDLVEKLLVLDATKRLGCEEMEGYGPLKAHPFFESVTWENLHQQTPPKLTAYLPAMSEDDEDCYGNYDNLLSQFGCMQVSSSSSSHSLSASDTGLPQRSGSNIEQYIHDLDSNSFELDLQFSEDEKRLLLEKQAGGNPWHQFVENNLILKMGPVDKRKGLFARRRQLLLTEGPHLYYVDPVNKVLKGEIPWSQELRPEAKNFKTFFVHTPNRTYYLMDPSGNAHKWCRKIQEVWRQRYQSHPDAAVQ

Serine/threonine-protein kinase 4, STK4/MST1 (Homo sapiens), sequence (Q13043 whole entry, looked up): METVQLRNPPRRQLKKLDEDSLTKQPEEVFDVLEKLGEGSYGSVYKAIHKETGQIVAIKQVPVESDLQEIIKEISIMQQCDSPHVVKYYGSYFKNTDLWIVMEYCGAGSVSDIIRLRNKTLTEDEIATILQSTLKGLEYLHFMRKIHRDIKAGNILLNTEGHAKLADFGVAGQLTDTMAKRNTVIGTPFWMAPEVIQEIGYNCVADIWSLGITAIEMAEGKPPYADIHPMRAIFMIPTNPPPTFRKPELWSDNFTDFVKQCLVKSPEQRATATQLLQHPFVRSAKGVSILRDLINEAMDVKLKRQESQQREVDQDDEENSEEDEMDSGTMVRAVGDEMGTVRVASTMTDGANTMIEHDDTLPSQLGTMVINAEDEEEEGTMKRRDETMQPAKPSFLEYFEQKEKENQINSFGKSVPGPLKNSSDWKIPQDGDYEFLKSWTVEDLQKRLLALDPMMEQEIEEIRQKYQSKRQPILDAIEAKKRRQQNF

pIC50 [1]: < 5.00 | pIC50 [2]: < 5.00
SMILES: O=C(c1ccc(F)c(F)c1Nc1ccc(I)cc1F)N1CC(O)([C@@H]2CCCCN2)C1
